Experimental data taken from patent US10927107B2, “Phenyl [a]indole[2,3-g]quinolizine compounds, preparation method therefor, pharmaceutical composition, and applications thereof” (Shanghai Institute of Materia Medica, Chinese Academy of …, priority 2016, dated 2021).
Like-named read-outs stand apart in the source and are kept apart here.

Experiments:
[1] = test system: Syrian golden hamsters (high-fat diet, hyperlipidemia model); test: In vivo lipid-lowering activity in high-fat diet golden hamsters; set-up: species or system Syrian golden hamster; settings: for CHOL / HDL-C / LDL-C / TG: high-fat diet, serum
Method: After adaptively feeding Syrian golden hamsters (male, 80-100 g) for a week, all hamsters were fed with high-fat diet. Two weeks later, blood was collected from the orbital venous plexus, serum was separated, and levels of total cholesterol (TC), triglyceride (TG), high-density lipoprotein (HDL-C) and low-density lipoprotein (LDL-C) in serum were measured. They were evenly grouped according to blood lipid levels into […]: model control group, A1 intragastric administration group, A1 intraperitoneal administration group, A5 intragastric administration group, A5 intraperitoneal administration group, A55 intragastric administration group, A55 intraperitoneal administration group, B5 intragastric administration group, B5 intraperitoneal administration group, and the animals in each group were continued to be administered with high fat diet. […] […] Blood lipid levels and body weights were measured every 10 days. After three weeks, the animals were sacrificed and the liver was stored in a −80° C. refrigerator.

[2] = Rat pharmacokinetics; format: in vivo; set-up: AUC(0-t) / AUC(0-inf): concentration or dose not given beside the values; settings: in vivo; for AUC(0-inf): read-out: AUCINF—obs; for MRT inf: read-out: MRTINF—obs
Method: (§1) A1 10 μL of a plasma sample was taken in a centrifuge tube and 100 μL of methanol:acetonitrile (1:1, v/v) was added, vortexed for 1 min, centrifugated (14000 rpm) for 5 min, and 50 μL supernatant was taken, mixed with equal volume of water, and analysised after vortex mixing. The linear range of A1 is: 0.1-300 ng/mL for oral administration and 1-3000 ng/mL for intravenous injection.
as §1, with “A55” for “A1”, “0.3-3000” for “1-3000”

[3] = Rat pharmacokinetics; set-up: AUC(0-t) / AUC(0-inf): concentration or dose not given beside the values; settings: in vivo, ip, i.p; for AUC(0-inf): read-out: AUCINF—obs; for MRT inf: read-out: MRTINF—obs
[4] = test system: HepG2 cells; test: In vitro lipid-lowering activity: DiI-LDL uptake in HepG2 cells; format: cell-based; settings: Homo sapiens, test compound 5 uM, 24 h, DiI-LDL 20 ug/ml, 3 h, FLU of sample group/FLU of blank group x100%, read-out: LDL uptake rate
Method: HepG2 cells were inoculated in 24-well plates, cultured in DMEM containing 10% FBS for 24 h or 48 h, and then transferred to DMEM containing 2% defatted serum and cultivated for 24 h. The old culture solution was discarded and replaced with new 2% defatted serum DMEM, and a test compound (the working concentration of which is 5 uM, triplicate for each sample) was added and incubated for 24 h. The old culture solution was abandoned and DMEM containing DiI-LDL (20 ug/ml) was added (300 ul/per 24 wells), incubated for 3 h. DMEM containing DiI-LDL was discarded, and cells were rinsed twice with PBS containing 0.4% BSA, and 3 times with PBS to remove excess DiI-LDL. Isopropanol was added (500 ul/per well of a 24-well plate), and was kept in darkness. After shaken for 20 minutes, 200 ul of supernatant was sucked to a black fluorescent plate, and fluorescence intensity (FLU) was detected at excitation light 520 nm and emission light 578 nm. The experimental results were calculated: LDL uptake rate=(FLU value of sample group to be tested/FLU value of blank group)×100%.

[5] = molecular target: T1, α1A-adrenergic receptor (α1A-AR) (Homo sapiens, UniProt P35348); test: Antagonistic activity on α1A-AR: calcium fluorescence in HEK293 cells stimulated with phenylephrine; format: cell-based; settings: HEK293 cells expressing α1A-AR; agonist phenylephrine 30 nM; calcium fluorescence; read-out: α1A-AR/IC50
T1 construct: expressed in transfected cells; host or cells: HEK293
T1 sequence (P35348 1-466): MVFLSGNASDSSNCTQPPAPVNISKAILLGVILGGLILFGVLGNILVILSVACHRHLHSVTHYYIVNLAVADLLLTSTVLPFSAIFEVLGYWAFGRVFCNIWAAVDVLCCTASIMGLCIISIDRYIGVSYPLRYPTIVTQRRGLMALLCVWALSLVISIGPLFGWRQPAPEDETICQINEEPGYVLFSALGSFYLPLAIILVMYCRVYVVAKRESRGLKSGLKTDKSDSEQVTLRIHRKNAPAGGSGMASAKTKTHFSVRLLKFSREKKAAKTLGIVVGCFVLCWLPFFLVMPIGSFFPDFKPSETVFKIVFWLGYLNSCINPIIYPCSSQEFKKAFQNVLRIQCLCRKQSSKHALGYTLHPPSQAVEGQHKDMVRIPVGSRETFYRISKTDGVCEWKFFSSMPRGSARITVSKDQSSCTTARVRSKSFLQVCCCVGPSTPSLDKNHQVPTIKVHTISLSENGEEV
Method: HEK293 cells stably expressing α1A-adrenergic receptor (α1A-AR) and G protein […] were seeded in 96-well plates. After 24 hours of culture, the medium was removed, and 40 μL of Hank's balanced salt solution (HBSS: containing 5.4 mM KCl, 0.3 mM Na2HPO4, 0.4 mM KH2PO4, 4.2 mM NaHCO3, 1.3 mM CaCl2, 0.5 mM MgCl2, 0.6 mM MgSO4, 137 mM NaCl, 5.6 mM D-glucose and 250 μM sulfinpyridone, pH 7.4) containing 2 μM of MFluo-4AM was added to each well, and incubated for 45 minutes in an incubator. The dye was aspirated and 50 μL of HBSS containing a test compound or 1% DMSO (negative control) was added and incubated for 10 minutes at room temperature, and then read with Flex Station 3 microplate reader. At the specified time point, 25 μL of agonist phenylephrine (final concentration 30 nM) will be automatically added by the detector into the reaction system, and simultaneously stimulated with 485 nm light, and the change in intensity of fluorescence caused by the change in the intracellular calcium ion concentration was detected at 525 nm. […] The response rate of different doses of the same drug was analyzed by GraphPad Prism software to obtain a dose-response curve and the IC50 value was measured. Each experiment was performed in […].

[6] = abdominal (intraperitoneal) 30 mg/kg once a day for three weeks
[7] = oral (intragastric) 30 mg/kg once a day for three weeks

SMILES | TC ([1]; Dose 30, oral) | TC ([1]; Dose 100, oral) | half-life ([2]; ip, i.p) | AUC(0-t) ([2]; po, i.g) | Cmax ([2]; po, i.g) | Tmax ([2]; po, i.g) | bioavailability ([2]; po, i.g) | half-life ([2]; po, i.g) | AUC(0-inf) ([2]; po, i.g) | MRT inf ([2]; po, i.g) | AUC(0-t) [3] | AUC(0-inf) [3] | MRT inf [3] | activity at 5 µM [4] | IC50 [5] | other results
COc1ccc2[nH]c3c(c2c1)CC1c2cc(OCc4ccc(C(F)(F)F)cc4)c(OC)cc2CCN1C3 (centres unmarked) [Example C3, 3,12-dimethoxy-2-((4-(trifluoromethyl)benzyl)oxy)-5,6,8,9,14,14a-hexahydroindolo[3′,2′:4,5]pyridine[2,1-a]isoquinoline] | 25.08 ± 16.98 mmol/L | 21.17 ± 3.89 mmol/L | 1110 min | 3960 ng·h/mL | 297 ng/mL | 4 h | 57.2% | 392 min | 4.34 µg·h/mL | 7.74 h | 3470 ng·h/mL | 9.36 µg·h/mL | 15.3 h | – | – | –
COc1ccc2[nH]c3c(c2c1)CC1c2cc(OCc4ccc(F)cc4)c(OC)cc2CCN1C3c1ccc(F)cc1 (centres unmarked) [Example B5, 2-((4-fluorobenzyl)oxo)-8-(4-fluorophenyl)-3,12-dimethoxy-5,6,8,9,14,14a-hexahydroindole[3′,2′:4,5]pyridine[2,1-a]isoquinoline] | – | – | – | – | – | – | – | – | – | – | – | – | – | 134% | > 100 µM | CHOL [1, 6]: 14.92 mmol/L; HDL-C [1, 6]: 2.90 mmol/L; LDL-C [1, 6]: 7.89 mmol/L; TG [1, 6]: 16.14 mmol/L; CHOL [1, 7]: 14.79 mmol/L; HDL-C [1, 7]: 3.99 mmol/L; LDL-C [1, 7]: 7.66 mmol/L; TG [1, 7]: 11.94 mmol/L; contents of cholesterol (CHOL), triglyceride (TG) and low density lipoprotein (LDL-C) in the blood ([1]; hyperlipidemia model): significantly reduced
COc1ccc2c(c1)c1c(n2CO)CN2CCc3cc(OCc4cccc(F)c4)c(OC)cc3C2C1 (centres unmarked) [Example A61, (3-((3-fluorobenzyl)oxy)-2,12-dimethoxy-5,6,14,14a-tetrahydroindolo[3′,2′:4,5]pyridine[2,1-a]isoquinoline-9(8H)-yl)methanol] | 37.11 ± 11.19 mmol/L | 22.57 ± 6.37 mmol/L | – | – | – | – | – | – | – | – | – | – | – | 165% | 4.53 µM | –
COc1ccc2[nH]c3c(c2c1)CC1c2cc(OC)c(OCc4ccc(C(F)(F)F)cc4)cc2CCN1C3 (centres unmarked) [Example C47, 2,12-dimethoxy-3-((4-(trifluoromethyl)benzyl)oxy)-5,6,8,9,14,14a-hexahydroindolo[3′,2′:4,5]pyridine[2,1-a]isoquinoline] | 19.73 ± 6.44 mmol/L | – | 3070 min | 9240 ng·h/mL | 251 ng/mL | 4 h | 31% | 2290 min | 564 µg·h/mL | 56.1 h | 14900 ng·h/mL | 1120 µg·h/mL | 66.4 h | 150% | > 100 µM | Cmax ([2]; ip, i.p): 276 ng/mL; Tmax ([2]; ip, i.p): 24 h
